From US11572354B2, “Inhibitor of indoleamine 2,3-dioxygenase-1 and methods of manufacture and use thereof” (UNIVERSITY HEALTH NETWORK, priority 2018, dated 2023) come the findings set out here.

Like-named read-outs stand apart in the source and are kept apart here.

For data set [1], the target named is T1, human IDO1 (Homo sapiens (Human), UniProt P14902). Kind of data set: IDO1 enzymatic inhibition assay. It counts as biochemical.
Data set [2] has as its target T1, human IDO1. The data set is described as follows: IDO1 inhibition in HEK293/IDO1 transfected cells. It counts as cell-based. Conditions: HEK293/TRIPZ-IDO1 cells.
Data set [3] is described as follows: Pharmacokinetics studies in mice (plasma and brain concentration). It counts as in vivo. Conditions: for Kp at 0.5 h / Kp at 2 h: brain/plasma. As for the experimental part:
In order to assess the pharmacokinetics of the IDO1 inhibitors of the present application, two inhibitors were administered to mice at 20 mg/kg via PO (G29), or IP (G28). For a preliminary pharmacokinetic profile, three animals were sacrificed per time point at 30 minutes and two hours post-dose. For a full pharmacokinetic profile, three animals were sacrificed per time point at 15 minute, 30 minutes, 1, 2, 4, 6, 8, and 24 hours post-dose.
Blood samples were collected via cardiac puncture, the mice were perfused with phosphate buffered saline (PBS) and the brains were collected. The blood and brain samples were protein precipitated with ice-cold acetonitrile and the concentration of the test compound in the resulting supernatant was quantified using LC/MS/MS. For the full pharmacokinetic profile, the parameters were computed using the “PK” package with the R statistical computing software using a non-compartmental analysis.

Data set [4] is described as follows: Tissue protein binding (micro-equilibrium dialysis). It counts as in vitro ADME, mice. To be noted: 6 hours at 37° C.
The next data set concerns the target TDO2 (Homo sapiens, UniProt P48775). Kind of data set: TDO2 enzymatic inhibition assay. It counts as biochemical. To be noted: 500 μM L-Tryptophan, means N≥3; read-out: TDO IC50.
[5] abbreviates: recombinant human IDO1, 200 μM L-Tryptophan, means N≥3.
The mark [6] stands for this setting: 24 h after doxycycline induction, means N≥3.

T1 sequence (P14902 whole entry): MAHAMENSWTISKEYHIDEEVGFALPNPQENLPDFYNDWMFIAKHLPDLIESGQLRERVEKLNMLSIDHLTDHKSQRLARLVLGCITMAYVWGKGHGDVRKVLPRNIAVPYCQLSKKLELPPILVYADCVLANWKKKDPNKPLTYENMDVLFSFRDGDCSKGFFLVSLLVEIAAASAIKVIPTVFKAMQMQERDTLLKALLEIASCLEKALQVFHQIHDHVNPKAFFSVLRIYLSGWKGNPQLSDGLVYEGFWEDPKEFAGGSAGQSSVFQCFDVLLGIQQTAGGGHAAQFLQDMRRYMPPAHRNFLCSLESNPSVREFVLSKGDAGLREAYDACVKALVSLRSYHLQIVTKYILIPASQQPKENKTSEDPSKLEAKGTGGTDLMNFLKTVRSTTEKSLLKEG
TDO2, sequence (P48775 whole entry, looked up): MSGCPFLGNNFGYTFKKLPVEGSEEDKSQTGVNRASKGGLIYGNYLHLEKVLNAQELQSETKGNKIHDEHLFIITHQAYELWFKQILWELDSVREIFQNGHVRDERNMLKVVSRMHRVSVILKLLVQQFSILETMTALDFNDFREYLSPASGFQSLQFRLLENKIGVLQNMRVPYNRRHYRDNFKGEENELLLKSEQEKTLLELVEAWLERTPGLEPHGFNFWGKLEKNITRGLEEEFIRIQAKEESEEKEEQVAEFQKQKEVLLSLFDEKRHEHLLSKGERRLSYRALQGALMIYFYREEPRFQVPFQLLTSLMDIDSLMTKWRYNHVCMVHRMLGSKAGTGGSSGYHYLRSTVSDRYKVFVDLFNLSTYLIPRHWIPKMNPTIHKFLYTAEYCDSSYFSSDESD

As for `Brc1ccc2[nH]c(Cn3cncc3-c3ccc[nH]3)cc2c1` [Compound G28, 2-((5-(1H-pyrrol-2-yl)-1H-imidazol-1-yl)methyl)-5-bromo-1H-indole], the IC50 turned out to be 0.31 µM at human IDO1 [1] (recombinant human IDO1) and 0.309 µM on human IDO1 [1] (setting [5]). Further, the values for the EC50 at human IDO1 [2] and at human IDO1 [2] (setting [6]) were 0.47 µM and 0.467 µM, respectively. Moreover, the Tissue Concentration Plasma Mean in data set [3] (20 mg/kg IP, 0.25 hr) is 1880 ng/mL; in data set [3] (20 mg/kg IP, 0.5 hr) it was 1840 ng/mL; in data set [3] (20 mg/kg IP, 1 hr) it was 1410 ng/mL; in data set [3] (20 mg/kg IP, 2 hr) it was 562 ng/mL; in data set [3] (20 mg/kg IP, 4 hr) it was 133 ng/mL; in data set [3] (20 mg/kg IP, 6 hr), “BQL”. In addition, the “Tissue Concentration Plasma Mean” value in data set [3] (20 mg/kg IP, 8 hr) is “BQL”. The AUC(0-inf) in data set [3] (mouse, 20 mg/kg IP, Brain) worked out at 14.2 µg·h/mL; in data set [3] (mouse, 20 mg/kg IP, Plasma), 2.92 µg·h/mL. The AUC(0-t) in data set [3] (mouse, 20 mg/kg IP, Brain) worked out at 9.87 µg·h/mL; in data set [3] (mouse, 20 mg/kg IP, Plasma) it was 2.91 µg·h/mL. Besides, the Cmax is 4.02 µg/mL in data set [3] (mouse, 20 mg/kg IP, Brain) and 1.88 µg/mL in data set [3] (mouse, 20 mg/kg IP, Plasma). Also, the Tmax in data set [3] (mouse, 20 mg/kg IP, Brain) stood at 30 min; in data set [3] (mouse, 20 mg/kg IP, Plasma), 15 min. The half-life in data set [3] (mouse, 20 mg/kg IP, Brain) was 142 min; in data set [3] (mouse, 20 mg/kg IP, Plasma), 49.8 min. The concentration at 0.25 h in data set [3] (mouse, brain, ip, 20 mg/kg, 20 mg/kg IP, 0.25 hr, read-out: Tissue Concentration Brain Mean) came to 1660 ng/g. The concentration at 0.5 h in data set [3] (mouse, brain, ip, 20 mg/kg, 20 mg/kg IP, 0.5 hr, read-out: Tissue Concentration Brain Mean) was 4020 ng/g. Also, in data set [3] (mouse, brain, ip, 20 mg/kg, 20 mg/kg IP, 1 hr, read-out: Tissue Concentration Brain Mean), the concentration at 1 h is 3520 ng/g. Moreover, in data set [3] (mouse, brain, ip, 20 mg/kg, 20 mg/kg IP, 2 hr, read-out: Tissue Concentration Brain Mean), the concentration at 2 h worked out at 2760 ng/g. Besides, in data set [3] (mouse, brain, ip, 20 mg/kg, 20 mg/kg IP, 4 hr, read-out: Tissue Concentration Brain Mean), the concentration at 4 h was determined as 1370 ng/g. For the same compound, in data set [3] (mouse, brain, ip, 20 mg/kg, 20 mg/kg IP, 6 hr, read-out: Tissue Concentration Brain Mean), the concentration at 6 h came out at 552 ng/g. Moreover, the concentration at 8 h in data set [3] (mouse, brain, ip, 20 mg/kg, 20 mg/kg IP, 8 hr, read-out: Tissue Concentration Brain Mean) was found to be 510 ng/g. The fraction unbound at 6 h was determined as 0.0161 in data set [4] (pooled brain homogenate in PBS (1:3 m:v), pooled mouse brain homogenized with PBS (1:3), read-out: % FU Brain) and 0.0117 in data set [4] (pooled mouse plasma, read-out: fu,plasma / % FU Plasma).
Turning to `COc1ccc(Cn2cncc2-c2cc3cc(Br)ccc3[nH]2)cc1` [Compound 9d, 5-bromo-2-(1-(4-methoxybenzyl)-1H-imidazol-5-yl)-1H-indole], the IC50 at human IDO1 [1] (setting [5]) was determined as 21 µM. A half-maximal effect on human IDO1 [2] (setting [6]) (EC50) was put at 4.3 µM.
Turning to `Fc1ccc2[nH]c(Cn3cncc3-c3ccc[nH]3)cc2c1` [Compound G29, 2-((5-(1H-pyrrol-2-yl)-1H-imidazol-1-yl)methyl)-5-fluoro-1H-indole], the IC50 at human IDO1 [1] (setting [5]) came out at 0.23 µM. The EC50 at human IDO1 [2] (setting [6]) was 0.25 µM. The concentration at 0.5 h in data set [3] (mouse, brain, po, 20 mg/kg, 20 mg/kg PO, 0.5 Hr, individual mouse M1, read-out: Brain concentration M1) was determined as 2.39 µg/mL; in data set [3] (mouse, brain, po, 20 mg/kg, 20 mg/kg PO, 0.5 Hr, individual mouse M2, read-out: Brain concentration M2), 0.869 µg/mL; in data set [3] (mouse, brain, po, 20 mg/kg, 20 mg/kg PO, 0.5 Hr, individual mouse M3, read-out: Brain concentration M3) it was 2.56 µg/mL; in data set [3] (mouse, brain, po, 20 mg/kg, 20 mg/kg PO, 0.5 Hr, read-out: Brain concentration Mean), 1.94 µg/mL; in data set [3] (mouse, plasma, po, 20 mg/kg, 20 mg/kg PO, 0.5 Hr, individual mouse M1, read-out: Plasma concentration M1), 2.66 µg/mL; in data set [3] (mouse, plasma, po, 20 mg/kg, 20 mg/kg PO, 0.5 Hr, individual mouse M2, read-out: Plasma concentration M2), 1.61 µg/mL. Moreover, the concentration at 0.5 h in data set [3] (mouse, plasma, po, 20 mg/kg, 20 mg/kg PO, 0.5 Hr, individual mouse M3, read-out: Plasma concentration M3) was found to be 2.74 µg/mL; in data set [3] (mouse, plasma, po, 20 mg/kg, 20 mg/kg PO, 0.5 Hr, read-out: Plasma concentration Mean), 2.33 µg/mL. Further, the concentration at 2 h was 3.45 µg/mL in data set [3] (mouse, brain, po, 20 mg/kg, 20 mg/kg PO, 2 Hr, individual mouse M4, read-out: Brain concentration M4); 2.05 µg/mL in data set [3] (mouse, brain, po, 20 mg/kg, 20 mg/kg PO, 2 Hr, individual mouse M5, read-out: Brain concentration M5); 2.75 µg/mL in data set [3] (mouse, brain, po, 20 mg/kg, 20 mg/kg PO, 2 Hr, read-out: Brain concentration Mean); 0.629 µg/mL in data set [3] (mouse, plasma, po, 20 mg/kg, 20 mg/kg PO, 2 Hr, individual mouse M4, read-out: Plasma concentration M4); 0.408 µg/mL in data set [3] (mouse, plasma, po, 20 mg/kg, 20 mg/kg PO, 2 Hr, individual mouse M5, read-out: Plasma concentration M5); 0.519 µg/mL in data set [3] (mouse, plasma, po, 20 mg/kg, 20 mg/kg PO, 2 Hr, read-out: Plasma concentration Mean). Also, the Kp at 0.5 h in data set [3] (mouse, po, 20 mg/kg, 20 mg/kg PO, 0.5 Hr, individual mouse M1, read-out: B/P Ratio M1) came to 0.9; in data set [3] (mouse, po, 20 mg/kg, 20 mg/kg PO, 0.5 Hr, individual mouse M2, read-out: B/P Ratio M2), 0.5; in data set [3] (mouse, po, 20 mg/kg, 20 mg/kg PO, 0.5 Hr, individual mouse M3, read-out: B/P Ratio M3) it was 0.9; in data set [3] (mouse, po, 20 mg/kg, 20 mg/kg PO, 0.5 Hr, read-out: B/P Ratio Mean), 0.8. Moreover, the Kp at 2 h was determined as 5.5 in data set [3] (mouse, po, 20 mg/kg, 20 mg/kg PO, 2 Hr, individual mouse M4, read-out: B/P Ratio M4); 5 in data set [3] (mouse, po, 20 mg/kg, 20 mg/kg PO, 2 Hr, individual mouse M5, read-out: B/P Ratio M5); 5.3 in data set [3] (mouse, po, 20 mg/kg, 20 mg/kg PO, 2 Hr, read-out: B/P Ratio Mean).
For `Brc1ccc2[nH]c(-c3cncn3Cc3ccccc3)cc2c1` [Compound 9a, 2-(1-benzyl-1H-imidazol-5-yl)-5-bromo-1H-indole], the “increase in potency versus compound 6” value on human IDO1 [1] (IDO1 IC50, versus compound 6) is reported as “two-fold”.
As for `Oc1ccccc1-c1cncn1Cc1cc2cc(Br)ccc2[nH]1` [Compound 10c, 2-(1-((5-bromo-1H-indol-2-yl)methyl)-1H-imidazol-5-yl)phenol], at TDO2, the IC50 was determined as 158 µM.
Turning to `Brc1ccc2[nH]c(-c3cnc[nH]3)cc2c1` [Compound 6, 5-bromo-2-(1H-imidazol-5-yl)-1H-indole], the IC50 on human IDO1 [1] (setting [5]) is 30 µM.

The IC50 is the concentration at which inhibition is half-maximal. A word on the EC50: it is the concentration that produces a half-maximal response. For orientation: AUC(0-inf) means total exposure, with the tail of the curve extrapolated. A lower AUC(0-inf) goes with low exposure. What is called AUC(0-t) is the area under the concentration-time curve up to a stated or last time point. Higher therefore signals high exposure. In general, Cmax refers to the highest concentration seen after dosing. The term Tmax denotes the time from dosing to the highest level. One may read the half-life as how long it takes for the measured level to halve.
